Experiments:
CDK12/13 = experiment: Immunoblotting of CDK12 and CDK13 in HCC38 cells; type: cell-based, human; conditions: increasing concentrations, 15 h
Procedure: To further characterize the compound, we determined the half-degradation concentration (DC50) values of ZLC491 in MDA-MB-231 cells. […] We also treated MDA-MB-231 cells with 1 μM ZLC491 at various time points.
(A) Immunoblotting of CDK12 and CDK13 in MDA-MB-231 cells treated with increasing concentrations of ZLC491 for 15 h (left). Percent remaining CDK12 and CDK13 proteins were plotted for DC50 determination (right). Protein levels were quantified using ImageJ and normalized to corresponding α-tubulin, then plotted using Graphpad Prism 8.0. The data were representative of three independent experiments; (B) immunoblotting of CDK12 and CDK13 proteins in MDA-MB-231 cells treated with ZLC491 for various time points; immunoblotting of CDK12 and CDK13 in HCC38 (C) and MDA-MB-436 (D) cells treated with increasing concentrations of ZLC491 for 15 h. α-Tubulin was used as a loading control. TEXT PRINTED IN THE PICTURE: (A) ZLC491: MDA-MB-231: CDK12 DC50 = 0.032μM; MDA-MB-231: CDK13 DC50 = 0.028μM DOUBTS OF THE COPYIST ABOUT THIS PICTURE: ZLC491, CDK12 DC50: 0.032 read from small print, the digits 3 and 2 are uncertain / ZLC491, CDK13 DC50: 0.028 read from small print, the last digit may be 8, 6 or 3 […]

[1] = tested on: DDR proteins (BRCA1, RAD51, ATM); experiment: Immunoblotting of DDR proteins in MDA-MB-231 cells; type: cell-based, human; conditions: MDA-MB-231, different doses, 48 h
Procedure: We next evaluated the effect of ZLC491 on the expression of DDR genes regulated by CDK12/13.
(A) Transcription level of DDR genes in MDA-MB-231 cells determined by RT-qPCR upon the treatment with vehicle or ZLC491 at different doses for 12 h, ROR1 was used as a negative control; (B) immunoblotting of DDR proteins in MDA-MB-231 cells after the treatment of ZLC491 at different doses for 48 h; (C) cell antiproliferative activity of ZLC491 in multiple TNBC cells as well as several noncancerous cells. Cells were treated with the compound for 5 days; (D,E) antiproliferative potency of cisplatin or olaparib alone or combined with ZLC491 at different doses in MDA-MB-231 cells for 5 days. Data are plotted using the percentage of absorbance relative to DMSO controls. (F) IC50 values and combination index (CI) in drug combination assay. In this model, CI scores estimate the interaction between the two drugs. If CI < 1, the drugs have a synergistic effect and if CI > 1, the drugs have an antagonistic effect. CI = 1 means the drugs have an additive effect. ^aThe drug combination in the table refers to the starting concentration of the two combined drugs, that would both go through serial dilution when treating cells. […]

CDK12 = CDK12 (Homo sapiens, UniProt Q9NYV4); experiment: CDK12 degradation in MDA-MB-231 cells by immunoblotting; type: cell-based; set-up: Immunoblotting of CDK12 and CDK13 in MDA-MB-231 cells treated with increasing concentrations of ZLC491 for 15 h; endogenous in cells; host or cells: MDA-MB-231
Sequence of CDK12 (Q9NYV4 whole entry): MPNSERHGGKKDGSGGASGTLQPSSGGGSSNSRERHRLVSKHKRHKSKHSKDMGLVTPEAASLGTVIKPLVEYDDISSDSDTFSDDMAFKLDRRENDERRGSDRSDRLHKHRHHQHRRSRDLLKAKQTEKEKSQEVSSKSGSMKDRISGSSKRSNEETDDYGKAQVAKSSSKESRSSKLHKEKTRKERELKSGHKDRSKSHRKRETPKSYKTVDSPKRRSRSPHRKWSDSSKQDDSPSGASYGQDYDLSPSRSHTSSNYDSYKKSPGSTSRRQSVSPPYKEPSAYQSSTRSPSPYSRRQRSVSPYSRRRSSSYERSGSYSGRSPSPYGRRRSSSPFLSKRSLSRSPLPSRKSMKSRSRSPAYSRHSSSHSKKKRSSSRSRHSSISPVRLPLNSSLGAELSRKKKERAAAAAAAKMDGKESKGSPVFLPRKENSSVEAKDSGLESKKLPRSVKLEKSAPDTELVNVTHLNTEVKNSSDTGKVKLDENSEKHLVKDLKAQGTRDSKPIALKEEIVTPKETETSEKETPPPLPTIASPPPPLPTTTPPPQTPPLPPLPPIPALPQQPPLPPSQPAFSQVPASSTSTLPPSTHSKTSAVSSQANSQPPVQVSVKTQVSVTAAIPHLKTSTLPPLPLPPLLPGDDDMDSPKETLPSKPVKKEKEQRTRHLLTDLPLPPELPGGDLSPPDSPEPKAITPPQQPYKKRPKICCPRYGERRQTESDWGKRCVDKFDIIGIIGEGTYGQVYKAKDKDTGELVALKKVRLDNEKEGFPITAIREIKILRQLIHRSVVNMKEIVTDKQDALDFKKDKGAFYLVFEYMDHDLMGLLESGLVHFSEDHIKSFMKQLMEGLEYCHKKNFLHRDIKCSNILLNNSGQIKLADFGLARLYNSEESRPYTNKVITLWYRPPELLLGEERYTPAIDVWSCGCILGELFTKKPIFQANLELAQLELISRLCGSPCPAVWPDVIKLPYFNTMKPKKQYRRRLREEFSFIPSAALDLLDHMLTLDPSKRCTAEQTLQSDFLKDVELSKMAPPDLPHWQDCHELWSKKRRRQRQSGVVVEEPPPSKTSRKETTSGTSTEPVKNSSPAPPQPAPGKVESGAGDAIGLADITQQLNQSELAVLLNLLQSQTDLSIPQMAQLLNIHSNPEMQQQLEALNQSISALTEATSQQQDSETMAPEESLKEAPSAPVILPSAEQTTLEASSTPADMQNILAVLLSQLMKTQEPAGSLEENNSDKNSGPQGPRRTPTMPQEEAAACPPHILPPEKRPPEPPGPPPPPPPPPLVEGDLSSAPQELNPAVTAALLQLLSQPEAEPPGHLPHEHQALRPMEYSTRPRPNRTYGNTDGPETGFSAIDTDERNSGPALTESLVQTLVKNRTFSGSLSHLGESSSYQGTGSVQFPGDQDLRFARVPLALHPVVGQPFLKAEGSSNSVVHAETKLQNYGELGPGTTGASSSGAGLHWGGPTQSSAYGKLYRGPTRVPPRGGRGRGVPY
Sequence of CDK12 (O75909 whole entry partner): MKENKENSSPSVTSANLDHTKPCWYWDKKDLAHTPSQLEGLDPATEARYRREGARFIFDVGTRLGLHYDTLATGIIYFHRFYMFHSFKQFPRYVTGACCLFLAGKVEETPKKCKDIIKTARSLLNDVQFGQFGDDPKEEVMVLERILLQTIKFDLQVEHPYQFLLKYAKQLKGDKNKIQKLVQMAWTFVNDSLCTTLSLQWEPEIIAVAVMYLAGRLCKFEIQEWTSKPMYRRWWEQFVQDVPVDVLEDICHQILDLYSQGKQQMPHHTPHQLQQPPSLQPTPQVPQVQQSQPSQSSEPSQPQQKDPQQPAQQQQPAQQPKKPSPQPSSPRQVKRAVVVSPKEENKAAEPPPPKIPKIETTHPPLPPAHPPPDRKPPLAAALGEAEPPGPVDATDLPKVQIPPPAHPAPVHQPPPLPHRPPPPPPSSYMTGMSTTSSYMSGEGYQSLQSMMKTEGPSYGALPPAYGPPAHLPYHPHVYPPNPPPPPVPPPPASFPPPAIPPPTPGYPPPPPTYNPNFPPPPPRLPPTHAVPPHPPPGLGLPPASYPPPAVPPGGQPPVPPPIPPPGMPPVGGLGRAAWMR
In short: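 MDA-MB-231 cells treated with ZLC491 at increasing concentrations for 15 h (screening at 0.3 μM; time course at 1 μM); SDS lysates immunoblotted, band intensities normalised to α-tubulin. DC50 taken from percent remaining protein versus concentration; representative of three independent experiments.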

N#Cc1ccc(N[C@H]2CC[C@H](N(C(=O)NCc3ccccc3)c3ccc(N4CCN(C5CCN(c6cc7c(cc6F)C(=O)N(C6CCC(=O)NC6=O)C7=O)CC5)CC4)cc3)CC2)nc1 (some centres unmarked) [ZLC491, 3-Benzyl-1-((1r,4r)-4-((5-cyanopyridin-2-yl)amino)cyclohexyl)-1-(4-(4-(1-(2-(2,6-dioxopiperidin-3-yl)-6-fluoro-1,3-dioxoisoindolin-5-yl)piperidin-4-yl)piperazin-1-yl)phenyl)urea]
depletion of CDK12/13 (CDK12/13): concentration-dependent manner | protein levels of DDR-relative proteins (BRCA1, RAD51, ATM) [1]: reduced | Protein Degradation (%DMSO control, 0.3 μM) CDK12 (CDK12; MDA-MB-231 cells, 0.3 μM, 15 h, immunoblotting, normalized against α-tubulin): 85% | DC50 (CDK12; MDA-MB-231 cells, 15 h): 32 nM | Degradation rates of CDK12 at 0.3 μM (CDK12; supplementary CSV, 0.3 μM): 85%
